Our source for the T/C values is PubChem BioAssay AID180 (DTP/NCI, 2004).

Values joined by “and” are separate entries in the source; they are usually repeats but may differ in a detail not shown here. Identical values can stand only once.

This test has as its system BDF1 mice, Adenocarcinoma 755 s.c., tumor weight T/C. In words: NCI In Vivo Anticancer Drug Screen. Data for tumor model Adenocarcinoma 755 (subcutaneous) in B6D2F1 (BDF1) mice. Particulars: endpoint: mean tumor weight, higher = larger tumour. The procedure: The antitumor activity of compounds was measured in mice bearing transplantable tumors. Survival or tumor size were measured and the results are expressed as the measurement made in the treated group (T) divided by the measurement made in the vehicle treated control group (C). The tumor model used in this assay is Adenocarcinoma 755 (subcutaneous) in B6D2F1 (BDF1) mice

The mark [1] stands for this setting: dose: 30.0 mg/kg/injection, schedule: Q01DX011 (ip), vehicle: carboxymethylcellulose (CMC).
The mark [2] stands for this setting: dose: 60.0 mg/kg/injection, schedule: Q01DX011 (ip), vehicle: carboxymethylcellulose (CMC).
Setting [3] is: dose: 12.5 mg/kg/injection, schedule: Q01DX011 (ip), vehicle: methylcellulose (MC).
[4] abbreviates: dose: 25.0 mg/kg/injection, schedule: Q01DX011 (ip), vehicle: methylcellulose (MC).
Setting [5] is: dose: 100.0 mg/kg/injection, schedule: Q01DX011 (ip), vehicle: methylcellulose (MC).
The mark [6] stands for this setting: dose: 100.0 mg/kg/injection, schedule: Q01DX011 (ip), vehicle: other.

The term T/C denotes the result in the treated group divided by that in the control group, in per cent. Regarding `O=c1[nH]cnc2c1ncn2C1CCCCC1`, the T/C is 93 % of control and 111 % of control (dose: 23.0 mg/kg/injection, schedule: Q01DX011 (ip), vehicle: carboxymethylcellulose (CMC)); 86 % of control (dose: 23.1 mg/kg/injection, schedule: Q01DX011 (ip), vehicle: carboxymethylcellulose (CMC)); 74 % of control (dose: 23.12 mg/kg/injection, schedule: Q01DX011 (ip), vehicle: carboxymethylcellulose (CMC)); 74 % of control and 85 % of control (dose: 46.0 mg/kg/injection, schedule: Q01DX011 (ip), vehicle: carboxymethylcellulose (CMC)); 118 % of control (dose: 46.2 mg/kg/injection, schedule: Q01DX011 (ip), vehicle: carboxymethylcellulose (CMC)); 117 % of control (dose: 46.25 mg/kg/injection, schedule: Q01DX011 (ip), vehicle: carboxymethylcellulose (CMC)). Besides, the T/C runs as follows: (dose: 46.25 mg/kg/injection, schedule: Q01DX011 (oral), vehicle: carboxymethylcellulose (CMC)) 104 % of control; (dose: 92.5 mg/kg/injection, schedule: Q01DX011 (ip), vehicle: carboxymethylcellulose (CMC)) 90 % of control and 99 % of control and 108 % of control; (dose: 92.5 mg/kg/injection, schedule: Q01DX011 (oral), vehicle: carboxymethylcellulose (CMC)) 118 % of control; (dose: 185.0 mg/kg/injection, schedule: Q01DX011 (oral), vehicle: carboxymethylcellulose (CMC)) 114 % of control; (dose: 370.0 mg/kg/injection, schedule: Q01DX011 (oral), vehicle: carboxymethylcellulose (CMC)) 79 % of control.
Regarding `Cn1c(=O)c2cc[nH]c2n(C)c1=O`, the T/C is, setting by setting: under setting [1], 87 % of control; under setting [2], 100 % of control.
For `O=C1N(Br)C(=O)C(c2ccc(Cl)cc2)(c2ccc(Cl)cc2)N1Br`, the T/C was 42 % of control (dose: 1.7 mg/kg/injection, schedule: Q01DX011 (ip), vehicle: carboxymethylcellulose (CMC)); 76 % of control (dose: 3.5 mg/kg/injection, schedule: Q01DX011 (ip), vehicle: carboxymethylcellulose (CMC)); 91 % of control (dose: 7.0 mg/kg/injection, schedule: Q01DX011 (ip), vehicle: carboxymethylcellulose (CMC)); 35 % of control and 39 % of control and 43 % of control (dose: 14.0 mg/kg/injection, schedule: Q01DX011 (ip), vehicle: carboxymethylcellulose (CMC)); 35 % of control and 49 % of control (dose: 28.0 mg/kg/injection, schedule: Q01DX011 (ip), vehicle: carboxymethylcellulose (CMC)); 22 % of control and 38 % of control under setting [1]. For the same molecule, the T/C is 20 % of control (dose: 56.0 mg/kg/injection, schedule: Q01DX011 (ip), vehicle: carboxymethylcellulose (CMC)); 29 % of control and 35 % of control under setting [2]; 38 % of control (dose: 112.0 mg/kg/injection, schedule: Q01DX011 (ip), vehicle: carboxymethylcellulose (CMC)); 14 % of control (dose: 120.0 mg/kg/injection, schedule: Q01DX011 (ip), vehicle: carboxymethylcellulose (CMC)).
As for `CCOCCNc1ncnc2c1cnn2C`, the T/C runs as follows: under setting [3], 112 % of control; under setting [4], 65 % of control; (dose: 50.0 mg/kg/injection, schedule: Q01DX011 (ip), vehicle: methylcellulose (MC)) 38 % of control; under setting [5], 17 % of control.
On to `C=CC(=O)NCO`, for which the T/C runs as follows: under setting [6], 86 % of control; (dose: 150.0 mg/kg/injection, schedule: Q01DX011 (ip), vehicle: other) 89 % of control; (dose: 200.0 mg/kg/injection, schedule: Q01DX011 (ip), vehicle: other) 88 % of control.
As to `CC(=O)[C@H]1[C@H](C)C[C@H]2[C@@H]3CCC4=CC(=O)CC[C@]4(C)[C@@]3(F)[C@@H](O)C[C@@]21C`, the T/C by setting is: (dose: 5.31 mg/kg/injection, schedule: Q01DX011 (sc), vehicle: steriod suspending solution) 108 % of control; (dose: 6.0 mg/kg/injection, schedule: Q01DX011 (sc), vehicle: steriod suspending solution) 62 % of control; (dose: 10.62 mg/kg/injection, schedule: Q01DX011 (sc), vehicle: steriod suspending solution) 85 % of control; (dose: 12.0 mg/kg/injection, schedule: Q01DX011 (sc), vehicle: steriod suspending solution) 27 % of control; (dose: 21.25 mg/kg/injection, schedule: Q01DX011 (sc), vehicle: steriod suspending solution) 86 % of control; (dose: 25.0 mg/kg/injection, schedule: Q01DX011 (sc), vehicle: steriod suspending solution) 23 % of control. Also, the T/C (dose: 42.5 mg/kg/injection, schedule: Q01DX011 (sc), vehicle: steriod suspending solution) was 39 % of control and 48 % of control; the T/C (dose: 50.0 mg/kg/injection, schedule: Q01DX011 (sc), vehicle: steriod suspending solution) was 16 % of control; the T/C (dose: 85.0 mg/kg/injection, schedule: Q01DX011 (sc), vehicle: steriod suspending solution) is 17 % of control; the T/C (dose: 100.0 mg/kg/injection, schedule: Q01DX011 (sc), vehicle: steriod suspending solution) is 12 % of control; the T/C (dose: 170.0 mg/kg/injection, schedule: Q01DX011 (sc), vehicle: steriod suspending solution) is 18 % of control; the T/C (dose: 340.0 mg/kg/injection, schedule: Q01DX011 (sc), vehicle: steriod suspending solution) was 18 % of control and 23 % of control. The T/C (dose: 680.0 mg/kg/injection, schedule: Q01DX011 (sc), vehicle: steriod suspending solution) was 8 % of control and 26 % of control; the T/C (dose: 1360.0 mg/kg/injection, schedule: Q01DX011 (sc), vehicle: steriod suspending solution) was 4 % of control.
For `Cc1ccc(CSc2ncnc3nc[nH]c23)cc1C`, the T/C was 48 % of control (dose: 18.75 mg/kg/injection, schedule: Q01DX011 (ip), vehicle: methylcellulose (MC)); 41 % of control (dose: 37.5 mg/kg/injection, schedule: Q01DX011 (ip), vehicle: methylcellulose (MC)); 32 % of control (dose: 75.0 mg/kg/injection, schedule: Q01DX011 (ip), vehicle: methylcellulose (MC)); 7 % of control (dose: 150.0 mg/kg/injection, schedule: Q01DX011 (ip), vehicle: methylcellulose (MC)).
As for `Clc1ccc(CNc2ncnc3c2cnn3C2CCCCO2)cc1Cl` (stereo not given), the T/C under setting [3] was 83 % of control; the T/C under setting [4] is 105 % of control; the T/C under setting [5] was 40 % of control and 61 % of control; the T/C (dose: 200.0 mg/kg/injection, schedule: Q01DX011 (ip), vehicle: methylcellulose (MC)) is 23 % of control.
Regarding `C[C@]12CCC(=O)C=C1CC[C@@H]1[C@@H]2[C@@H](O)C[C@@]2(C)[C@H]1CC[C@]2(O)C(=O)COC(=O)c1ccc([N+](=O)[O-])cc1Cl`, the T/C is 43 % of control (dose: 25.0 mg/kg/injection, schedule: Q01DX011 (sc), vehicle: water); 17 % of control (dose: 50.0 mg/kg/injection, schedule: Q01DX011 (sc), vehicle: water); 23 % of control (dose: 100.0 mg/kg/injection, schedule: Q01DX011 (sc), vehicle: water); 4 % of control (dose: 200.0 mg/kg/injection, schedule: Q01DX011 (sc), vehicle: water).
`CN(C)S(=O)(=O)c1ncc2[nH]cnc2n1`: the T/C reads like this: (dose: 25.0 mg/kg/injection, schedule: Q01DX011 (ip), vehicle: carboxymethylcellulose (CMC)) 116 % of control; (dose: 75.0 mg/kg/injection, schedule: Q01DX011 (ip), vehicle: carboxymethylcellulose (CMC)) 98 % of control; (dose: 225.0 mg/kg/injection, schedule: Q01DX011 (ip), vehicle: carboxymethylcellulose (CMC)) 84 % of control.
Take `O=[N+]([O-])c1ccc(-n2cnc3c(=S)nc[nH]c32)o1`: the T/C (dose: 0.2 mg/kg/injection, schedule: Q01DX011 (ip), vehicle: carboxymethylcellulose (CMC)) is 105 % of control; the T/C (dose: 0.4 mg/kg/injection, schedule: Q01DX011 (ip), vehicle: carboxymethylcellulose (CMC)) is 92 % of control; the T/C (dose: 0.8 mg/kg/injection, schedule: Q01DX011 (ip), vehicle: carboxymethylcellulose (CMC)) is 86 % of control; the T/C (dose: 1.6 mg/kg/injection, schedule: Q01DX011 (ip), vehicle: carboxymethylcellulose (CMC)) is 29 % of control and 44 % of control; the T/C (dose: 3.2 mg/kg/injection, schedule: Q01DX011 (ip), vehicle: carboxymethylcellulose (CMC)) is 32 % of control; the T/C (dose: 6.3 mg/kg/injection, schedule: Q01DX011 (ip), vehicle: carboxymethylcellulose (CMC)) was 1 % of control.
For `N#CCCn1cnc2c(Cl)ncnc21`, the T/C is 85 % of control (dose: 50.0 mg/kg/injection, schedule: Q01DX011 (ip), vehicle: other); 157 % of control under setting [6]; 98 % of control (dose: 400.0 mg/kg/injection, schedule: Q01DX011 (ip), vehicle: other); 63 % of control (dose: 600.0 mg/kg/injection, schedule: Q01DX011 (ip), vehicle: other); 94 % of control (dose: 800.0 mg/kg/injection, schedule: Q01DX011 (ip), vehicle: other).
